According to patent publication US20040005686A1, “Crystalline structure of human MAPKAP kinase-2” (Pharmacia Corporation, priority 2002, published 2004):
Blank lines part the entries; values can stand above or below the molecule they belong to. Ends that are not written are not given here.

Key:
MK-2 = settings: cited from earlier work
[1] = molecular target: T1, Human MAPKAP kinase-2 (45-371) (human, UniProt P49137 45-371); experiment: X-ray crystallography of MK-2 co-crystallized with AMP-PNP, SC-83598 and MgCl2
T1 construct: Expressed in E. coli as a GST fusion; One copy of the complex per asymmetric unit; also called MK-2(45-371); MK-2
T1 sequence (P49137 45-371 limits assumed): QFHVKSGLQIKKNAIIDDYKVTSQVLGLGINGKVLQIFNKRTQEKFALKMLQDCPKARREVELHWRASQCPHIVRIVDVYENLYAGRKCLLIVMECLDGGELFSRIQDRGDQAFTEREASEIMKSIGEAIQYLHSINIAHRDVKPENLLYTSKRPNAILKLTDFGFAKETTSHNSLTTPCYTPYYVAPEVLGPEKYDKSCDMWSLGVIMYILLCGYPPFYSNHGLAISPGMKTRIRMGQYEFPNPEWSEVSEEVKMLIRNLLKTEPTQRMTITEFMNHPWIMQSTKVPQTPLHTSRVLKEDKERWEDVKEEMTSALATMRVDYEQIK
Procedure: Following this general procedure the co-crystals were grown by sitting drop vapor diffusion. […] This protein solution was mixed in a 1:1 ratio with a reservoir solution containing around 1.6-2.6M ammonium sulfate and 100 mM sodium acetate, the reservoir solution being at a pH of between around 4.2-5.4. Small bipyramidal or prism-shaped crystals appeared in the drops in 1-2 days and grew to as large as 0.4 mm×0.4 mm in about 1 to 3 weeks.
Small bipyramidal or prism-shaped crystals appeared in the drops in 1-2 days and grew to as large as 0.4 mm×0.4 mm over 1-3 weeks.

Molecule: C[S+]([O-])c1ccc(-c2nc(-c3ccncc3)c(-c3ccc(F)cc3)[nH]2)cc1 (centres unmarked) [SB203580]
- activation of MK-2 (MK-2): inhibit activation of MK-2

- binding result [1]: binds
B1: SC-83598 (13-residue inhibitor peptide) (peptide)
peptide: KKKALLRQLGVAA
modifications: not fully specified
